Source: patent US10160763B2, “WDR5 inhibitors and modulators” (Vanderbilt University, priority 2016, dated 2018)

These compounds were tested against WDR5 (Δ23, residues 24-334) (Homo sapiens, UniProt P61964) (assay: biochemical). Details: Kd (M), FPA-based binding affinity at the WDR5 WIN site; IC50 converted to Kd by modified Cheng-Prusoff equation; average of two experiments.

Compound	Kd [M]
COc1ccc(C(=O)N(Cc2cccc(-c3cn4c(n3)CCC4)c2)C(C2CC2)C2CC2)cc1OC [B55]	5.25e-06
O=C(NCc1cccc(-c2cn3c(n2)CCC3)c1)c1ccc2c(c1)OCO2 [B56]	1.18e-06
COc1ccc(C(=O)N(CCc2ccccc2)Cc2cccc(-c3cn4c(n3)CCC4)c2)cc1OC [B57]	4.46e-06
CC(=O)N1CCCC(C(=O)N(Cc2cccc(-c3cn4c(n3)CCC4)c2)CC2CC2)C1 (centres unmarked) [B58]	7.9e-07
COc1ccc(C(=O)N(Cc2cccc(-c3cn4c(n3)CCC4)c2)CC2CC2)cc1OC [B59]	6.18e-07
O=C(Cc1cc(Cl)cc(Cl)c1)N(Cc1cccc(-c2cn3c(n2)CCC3)c1)CC1CC1 [B60, N-(Cyclopropylmethyl)-2-(3,5-dichlorophenyl)-N-(3-(6,7-dihydro-5H-pyrrolo[1,2-a]imidazol-2-yl)benzyl)acetamide]	2.85e-07
C[C@H](C(=O)N(Cc1cccc(-c2cn3c(n2)CCC3)c1)CC1CC1)c1ccccc1 [B61]	6.45e-07
O=C(C1CCc2ccccc2C1)N(Cc1cccc(-c2cn3c(n2)CCC3)c1)CC1CC1 (centres unmarked) [B62]	2.81e-06
COc1ccc(C(=O)N(Cc2cccc(-c3cn4c(n3)CCC4)c2)Cc2ccc(F)c(F)c2)cc1OC [B63]	7.51e-07
COc1cccc(CN(Cc2cccc(-c3cn4c(n3)CCC4)c2)C(=O)c2ccc(OC)c(OC)c2)c1 [B64]	5.38e-07
COc1ccc(CN(Cc2cccc(-c3cn4c(n3)CCC4)c2)C(=O)c2ccc(OC)c(OC)c2)cc1 [B65]	4.15e-07
COc1ccc(C(=O)N(Cc2ccc(C)cc2)Cc2cccc(-c3cn4c(n3)CCC4)c2)cc1OC [B66]	5.53e-07
O=C(NCc1cccc(-c2cn3c(n2)CCC3)c1)C(c1ccccc1)c1ccccc1 [B67]	1.06e-06
COc1ccc(C(=O)N(Cc2cccc(-c3cn4c(n3)CCC4)c2)C(C)c2cccc(Cl)c2)cc1OC (centres unmarked) [B68]	3.72e-06
COC(=O)c1cc(CN(CC2CC2)C(=O)c2ccc(OC)c(OC)c2)cc(-c2cn3c(n2)CCC3)c1 [B69]	3.05e-07
COc1ccc(C(=O)N(Cc2cccc(-c3cn4c(n3)CCC4)c2)C(C)c2ccccc2)cc1OC (centres unmarked) [B70]	5.98e-06
CN(Cc1cccc(-c2cn3c(n2)CCC3)c1)C(=O)Cc1cc(Cl)cc(Cl)c1 [B71]	6.12e-07
CC(C)N(Cc1cccc(-c2cn3c(n2)CCC3)c1)C(=O)Nc1cc(Cl)cc(Cl)c1 [B72]	3.01e-07
CC(C)N(Cc1cccc(-c2cn3c(n2)CCC3)c1)C(=O)Cc1cc(Cl)cc(Cl)c1 [B73]	1.9e-06
CN(Cc1cccc(-c2cn3c(n2)CCC3)c1)C(=O)Nc1cc(Cl)cc(Cl)c1 [B74]	8.21e-07
CC(C(=O)N(Cc1cccc(-c2cn3c(n2)CCC3)c1)C(C)C)c1cc(Cl)cc(Cl)c1 (centres unmarked) [B75]	4.1e-07
CCOc1cccc(C(=O)NCc2cccc(-c3cn4c(n3)CCC4)c2)c1 [B78]	1.48e-07

Compound	Kd [M]
CCOc1cccc(C(=O)N(Cc2cccc(-c3cn4c(n3)CCC4)c2)CC2CC2)c1 [B79]	4.91e-07
COc1cccc(C(=O)N(Cc2cccc(-c3cn4c(n3)CCC4)c2)C(C2CC2)C2CC2)c1 [B81]	1.18e-07
O=C(Cc1ccc(Cl)c(F)c1)NCc1cccc(-c2cn3c(n2)CCC3)c1 [B82]	5.02e-07
COc1cccc(C(=O)N(Cc2cccc(-c3cn4c(n3)CCC4)c2)C(C)c2cccc(Cl)c2)c1 (centres unmarked) [B83]	4.51e-07
CC(C(=O)NCc1cccc(-c2cn3c(n2)CCC3)c1)c1ccccc1 (centres unmarked) [B84]	4.35e-07
COc1cccc(C(=O)N(Cc2cccc(-c3cn4c(n3)CCC4)c2)CC(C)C)c1 [B85]	2.85e-06
CCC(C)N(Cc1cccc(-c2cn3c(n2)CCC3)c1)C(=O)c1cccc(OC)c1 (centres unmarked) [B86]	4.25e-07
CCC(C1CC1)N(Cc1cccc(-c2cn3c(n2)CCC3)c1)C(=O)c1cccc(OC)c1 (centres unmarked) [B87]	8.63e-07
COc1cccc(CC(=O)NCc2cccc(-c3cn4c(n3)CCC4)c2)c1 [B88]	8.9e-07
COc1cccc(C(=O)N(Cc2cc(-c3cn4c(n3)CCC4)ccc2F)CC2CC2)c1 [B90]	4.24e-05
O=C(Cc1ccc(Cl)c(Cl)c1)N(Cc1cc(-c2cn3c(n2)CCC3)ccc1OCC1CC1)CC1CC1 [B100]	2e-07
O=C(Cc1ccc(Cl)c(Cl)c1)NCc1cc(-c2cn3c(n2)CCC3)ccc1N1CCCCC1 [B101]	2.75e-05
COc1cccc(C(=O)N(Cc2cc(-c3cn4c(n3)CCC4)ccc2N2CCCC2)CC2CC2)c1 [B102]	5.1e-07
COc1cccc(C(=O)NCc2cc(-c3cn4c(n3)CCC4)ccc2N2CCCCC2)c1 [B103]	1.04e-07
O=C(Cc1ccc(Br)cc1)NCc1cccc(-c2cn3c(n2)CCC3)c1 [B106]	1.33e-07
O=C(CC12C[C@H]3C[C@@H](C1)C[C@@H](C2)C3)NCc1cccc(-c2cn3c(n2)CCC3)c1 [B107]	5.6e-08
O=C(Cc1ccc(Cl)c(Cl)c1)NCc1cc(-c2cn3c(n2)CCC3)ccc1OC1CCCC1 [B109]	1e-05
CCOc1cccc(C(=O)N(C)Cc2cccc(-c3cn4c(n3)CCC4)c2)c1 [B110]	1e-09
O=C(Cc1ccc(Cl)c(Cl)c1)NCc1cc(-c2cn3c(n2)CCC3)ccc1-c1ccccc1 [B111]	2e-08
COc1cccc(C(=O)NCc2cc(-c3cn4c(n3)CCC4)ccc2N2CCCC2)c1 [B114]	4.73e-07
COc1cccc(C(=O)NCc2cc(-c3cn4c(n3)CCC4)ccc2OCc2ccccc2)c1 [B115]	1.3e-08
O=C(Cc1ccc(Cl)c(Cl)c1)NCc1cc(-c2cn3c(n2)CCC3)ccc1OCc1ccccc1 [B116]	2.76e-07

Compound	Kd [M]
COc1cccc(C(=O)NCc2cc(-c3cn4c(n3)CCC4)ccc2OC2CCCC2)c1 [B117]	1e-05
O=C(Cc1ccc(Cl)c(Cl)c1)NCc1cc(-c2cn3c(n2)CCC3)ccc1N1CCCC1 [B118]	7.6e-08
COc1cccc(C(=O)NCc2cc(-c3cn4c(n3)CCC4)ccc2Oc2ccccc2)c1 [B119]	1.8e-08
O=C(Cc1ccc(O)c(Cl)c1)NCc1cccc(-c2cn3c(n2)CCC3)c1 [B120]	2.32e-07
Cn1cc(CC(=O)NCc2cccc(-c3cn4c(n3)CCC4)c2)c2ccccc21 [B121]	2.78e-05
O=C(Cc1c[nH]c2ccccc12)NCc1cccc(-c2cn3c(n2)CCC3)c1 [B122]	2.64e-07
O=C(Cc1ccncc1)NCc1cccc(-c2cn3c(n2)CCC3)c1 [B123]	2.2e-08
CN(C)C(=O)CCC(=O)NCc1cccc(-c2cn3c(n2)CCC3)c1 [B124]	2.25e-07
O=C(Cc1ccc(Cl)c(Cl)c1)NCc1cc(-c2cn3c(n2)CCC3)ccc1Oc1ccccc1 [B125]	2.2e-07
COc1cccc(C(=O)NCc2cc(-c3cn4c(n3)CCC4)ccc2-c2ccccc2)c1 [B126]	5.7e-08
Cc1ccc(C(=O)NCc2cccc(-c3cn4c(n3)CCC4)c2)cc1C(F)(F)F [B130]	9.72e-07
O=C(Cc1cccc(Cl)c1)NCc1cccc(-c2cn3c(n2)CCC3)c1 [B133]	6e-06
O=C(Cc1cc(C(F)(F)F)cc(C(F)(F)F)c1)NCc1cccc(-c2cn3c(n2)CCC3)c1 [B134]	4.59e-06
O=C(Cc1ccc(Cl)nc1)NCc1cccc(-c2cn3c(n2)CCC3)c1 [B135]	8.7e-08
O=C(Cc1cccc(Br)c1)NCc1cccc(-c2cn3c(n2)CCC3)c1 [B136]	3.09e-07
O=C(Cc1cccc(OC(F)(F)F)c1)NCc1cccc(-c2cn3c(n2)CCC3)c1 [B137]	2.6e-08
COc1cccc(C(=O)NCc2cc(-c3cn4c(n3)CCC4)ccc2N2CCOCC2)c1 [B139]	1.84e-07
CC(=O)N1CCCC(CC(=O)NCc2cccc(-c3cn4c(n3)CCC4)c2)C1 (centres unmarked) [B140]	8.67e-07
CC(=O)N1CC(CC(=O)NCc2cccc(-c3cn4c(n3)CCC4)c2)C1 [B141]	1e-08
CN1CCN(c2ccc(-c3cn4c(n3)CCC4)cc2CNC(=O)Cc2ccc(Cl)c(Cl)c2)CC1 [B142]	1.2e-07
Cc1ccccc1-c1ccc(-c2cn3c(n2)CCC3)cc1CNC(=O)Cc1ccc(Cl)c(Cl)c1 [B145]	6.77e-06
O=C(Cc1ccc(Cl)c(Cl)c1)N(Cc1cc(-c2cn3c(n2)CCC3)ccc1N1CCCC1)CC1CC1 [B146]	4.16e-07

Compound	Kd [M]
COc1cccc(C(=O)NCc2cc(-c3cn4c(n3)CCC4)ccc2N2CCN(C)CC2)c1 [B147, N-(5-(6,7-dihydro-5H-pyrrolo[1,2-a]imidazol-2-yl)-2-(4-methylpiperazin-1-yl)benzyl)-3-methoxybenzamide]	2.22e-06
CC(C)N(Cc1cc(-c2cn3c(n2)CCC3)ccc1OC1CCC1)C(=O)Cc1ccc(Cl)c(Cl)c1 [B148]	1.4e-08
O=C(Cc1cccc(Cl)c1Cl)NCc1cccc(-c2cn3c(n2)CCC3)c1 [B149]	8.75e-07
O=C(CC1CCNCC1)NCc1cccc(-c2cn3c(n2)CCC3)c1 [B150]	1e-05
O=C(Cc1cccnc1)NCc1cccc(-c2cn3c(n2)CCC3)c1 [B152]	1.23e-06
O=C(Cc1ccc2c(c1)CCO2)NCc1cccc(-c2cn3c(n2)CCC3)c1 [B153]	6.04e-07
O=C(Cc1ccc2c(c1)OCO2)NCc1cccc(-c2cn3c(n2)CCC3)c1 [B154]	1e-09
O=C(Cc1ccc(F)c(Cl)c1)NCc1cccc(-c2cn3c(n2)CCC3)c1 [B155]	1.05e-07
CC(=O)N1CCCC(C(=O)NCc2cc(-c3cn4c(n3)CCC4)ccc2N2CCOCC2)C1 (centres unmarked) [B156]	6.8e-08
COc1cccc(CCC(=O)NCc2cccc(-c3cn4c(n3)CCC4)c2)c1 [B157]	9.1e-08
O=C(CCc1cccc(Cl)c1)NCc1cccc(-c2cn3c(n2)CCC3)c1 [B158]	4.99e-06
Cc1cc(Cl)cc(C(=O)NCc2cccc(-c3cn4c(n3)CCC4)c2)c1 [B160]	1.81e-06
CC(=O)N1CCCC(C(=O)N(Cc2cc(-c3cn4c(n3)CCC4)ccc2OC2CCC2)CC2CC2)C1 (centres unmarked) [B161]	1e-05
Cc1ccc(-c2ccc(-c3cn4c(n3)CCC4)cc2CNC(=O)Cc2ccc(Cl)c(Cl)c2)cc1 [B163]	1e-05
CC(=O)N1CCCC(C(=O)NCc2cc(-c3cn4c(n3)CCC4)ccc2OC2CCC2)C1 (centres unmarked) [B164]	2.31e-07
CC1CN(c2ccc(-c3cn4c(n3)CCC4)cc2CNC(=O)Cc2ccc(Cl)c(Cl)c2)CC(C)O1 (centres unmarked) [B165]	3.32e-06
O=C(NCc1cccc(-c2cn3c(n2)CCC3)c1)c1ccc(F)c(F)c1 [B166]	5.8e-08
O=C(NCc1cccc(-c2cn3c(n2)CCC3)c1)c1cccc(Cl)c1Cl [B167]	3.8e-07
O=C(NCc1cccc(-c2cn3c(n2)CCC3)c1)c1cocn1 [B168]	5.75e-07
Cc1cnc(Cl)c(C(=O)NCc2cccc(-c3cn4c(n3)CCC4)c2)c1 [B169]	6.68e-07
